Test results: patent publication US11173173B2, “Methods for treating chemoresistant cancer-initiating cells” (UNIVERSITY OF CONNECTICUT, priority 2015, dated 2021)

Assays:
pS^552-β-catenin [1] = assay: Anti-pS552-β-catenin staining of populations sorted from treated leukemic mice; assay type: in vivo, mouse; conditions: [Low]DXR 0.5 mg/kg daily x5; chemotherapy Nelarabine 217 mg/kg + Dexamethasone 10 mg/kg daily x5
Excerpt: Open arrows indicate a single treatment cycle for typical clinical use of DXR and targeted use strategy (inner box) drawn to relative scales. Triangles represent DXR treatment drawn proportionally to scale. The cumulative targeted dose (distributed over 5 days consecutively) is indicated to relative scale by the inner triangle (white) (see Methods). c, Representative flow cytometry sorting gates indicating HSPC, LSC and (non-LSC) T-ALL blast cell populations. d, Populations from (c) were sorted from leukemic mice treated as indicated in (a,b) with vehicle, chemotherapy, [Low]DXR or chemotherapy+[Low]DXR and stained with Anti-pS^552-β-catenin antibody. Mean fluorescent intensity (MFI) is indicated for each population and treatment. e, Representative images of pS^552-β-catenin staining of LSCs sorted from mice treated as indicated from (d). Scale bars, 30 μm (inset 3 μm).
Chemotherapy consisted of Nelarabine (Selleck) and Dexamethasone (BioVision) administered daily for 5 days consecutively. 43.4 mg/ml Nelarabine was administered intravenously via the tail vain according to the formula: Body Weight (g)×5=volume to inject (μl), which yielded 217 mg/kg. 2.5 mg/ml Dexamethasone was injected intraperitoneally according to the formula: Body Weight (g)×4=volume to inject (μl), yielding 10 mg/kg. […]
It was next determined whether DXR could inhibit pS^552-β-catenin in vivo. […]

pS^552-β-catenin [2] = assay: Western analysis of pS552-β-catenin in compound-treated TOP and FOP cells; conditions: TOP and FOP cells treated 48 hours at EC90, EC50, EC25
Method: Cytotoxicity profiles (CTG) of compounds were also determined. […] TOP and FOP cells were treated with candidate compounds at EC90, EC50 and EC25 derived from (b) for 48 hours, washed and flash frozen for Western analysis (c).
Activity of compounds was tested against HEK-TOP cells vs. HEK FOP cells for inhibition of luciferase activity. The cytotoxicity profiles of the compounds were also tested using Cell Titer Glo assay (Promega) on HEK-TOP cell lines. […] The HEK cells and HEK Top cells were plated at 300,000 cells/well in 6 well plates and were treated in duplicate with EC90, EC50 and EC25 concentrations of the 25 repurchased compounds as well as three controls. After 48 h of exposure, the cells were washed with PBS and flash frozen. The frozen cells were lysed directly in plates for Western analysis.

[3] = system: leukemic Pten:β-cat^Act (T-ALL) mice; assay: Long-term survival of treated leukemic mice; assay type: in vivo, mouse; conditions: single treatment cycle, no transplantation
Method: Chemotherapy consisted of Nelarabine (Selleck) and Dexamethasone (BioVision) administered daily for 5 days consecutively. 43.4 mg/ml Nelarabine was administered intravenously via the tail vain according to the formula: Body Weight (g)×5=volume to inject (μl), which yielded 217 mg/kg. 2.5 mg/ml Dexamethasone was injected intraperitoneally according to the formula: Body Weight (g)×4=volume to inject (μl), yielding 10 mg/kg. […] [Low]NanoDXR (also referred to as [Low]NanoDoxo throughout) treatment used doxorubicin nanoparticles as described in International Patent Publication WO 2015/054269 (incorporated by reference in its entirety) administered as a single IV injection once per week on day 1 relative to above treatments using 0.8 mg/kg. Maintenance [Low]NanoDXR consisted of once per week injections of 0.4 mg/kg. Groups combining Nelarabine with Doxorubicin used a single injection containing both drugs. All drugs were solubilized in 45% (2-Hydroxypropyl)-β-cyclodextrin (HBC).

[4] = system: tumorigenic cells (functional LSCs) in BM of treated leukemic mice; assay: Tumorigenic assay: BM of treated leukemic mice transplanted into NSG recipients; assay type: in vivo, mouse
Method: At 12 days post-treatment, BM was harvested from treated mice and transplanted into sub-lethally irradiated NSG recipients. a, Treatment schematic and Kaplan-Meier curves of recipient mice. b, Recipients of BM from [Low]DXR only treated leukemic mice were analyzed by flow cytometry at 6 months post-transplant. […] Dashed line indicates day of final [Low]nanoDXR treatment. f, Surviving [Low]nanoDXR treated mice were analyzed by flow cytometry at 230 days post-treatment.
At 12 days post-treatment, BM was harvested from treated mice and transplanted into sub-lethally irradiated NSG recipients. a, Treatment schematic and Kaplan-Meier curves of recipient mice.
Tumorigenic assays were performed by transplanting 0.5, 1.5, or 4.5×10^4 bone marrow cells from treated mice at 12 days post-treatment into 3.25 Gy irradiated NSG recipient mice. 10 recipients were used for each dose from each group. One male and one female donor was used for each group. Leukemia was assessed in mice euthanized due to poor health by analyzing CD45^Hi CD3^+ cell frequency. Mice having >20% Blasts in the bone marrow were considered leukemic.
A cohort of mice was established as in FIG. 3a. One week after completion of treatment with vehicle, chemotherapy, [Low]DXR, or chemotherapy+[Low]DXR, we transplanted BM from treated mice into irradiated NSG recipients to test for tumorigenic cells.

[5] = Cardiotoxicity based on cardiac troponin I level and histology; assay type: in vivo; conditions: 1 mg/kg (8 doses) and high single dose
Method: Data are presented as mean±SD (n=5) *P<0.05, **P<0.01. c provides cardiac Troponin I level after administration of free doxorubicin (DOX) and doxorubicin nanoparticles (DOX-NPs).
The doxorubicin nanoparticles have an average particle diameter of 138 nm. […] The release of Dox in PBS was steady at approximately 2% per day, with 24% released in 12 days. […] Cardiotoxicity was tested based on cardiac troponin I level and histology.

COc1cccc2c1C(=O)c1c(O)c3c(c(O)c1C2=O)C[C@@](O)(C(=O)CO)C[C@@H]3O[C@H]1C[C@H](N)[C@H](O)[C@H](C)O1 [DXR, doxorubicin]
pS552-β-catenin level in LSCs sorted from treated mice (pS^552-β-catenin [1]): reduced in LSCs isolated from mice recently treated with [Low]DXR, although consistent variability yielded no statistical significance | inhibition of pS552-β-catenin (Western) (pS^552-β-catenin [2]): effectively inhibited pS^552-β-catenin | survival of treated leukemic mice [3]: only minor and insignificant improvement | blast cells, LSCs and HSPCs in surviving recipients ([4]; 6 months post-transplant): only trace levels of blast cells and LSCs, and HSPCs were within normal parameters | recipients remaining healthy nearly 6 months post-transplant ([4]; recipients of BM from treated leukemic mice): 29/30 | cardiotoxicity (cardiac troponin I level and histology) [5]: showed cardiotoxicity
